Assay results published in patent US12077503B2, “Substituted cyclic amides and their use as herbicides” (FMC CORPORATION, priority 2015, dated 2024).

Experiments:
Assay type in all cases: in vivo
[1] = tested on: pigweed (Amaranthus retroflexus); assay: Test A postemergence; settings: Amaranthus retroflexus, post-emergence, 240 h, Postemergence; for pest or weed control at 31 g/ha: 31 g ai/ha, 0 is no effect, 100 is complete control, read-out: Pigweed plant response rating (0 to 100 scale); for pest or weed control at 125 g/ha: 125 g ai/ha, visual injury after approx. 10 d, 0 to 100 scale, 0 no effect, 100 complete control, read-out: Plant response rating, Pigweed
Procedure, shortened: (§1)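 Preemergence soil spray on seeded pots or post-emergence spray on 1–2 leaf plants, in loam–sand blend. Greenhouse ~10 d. Visual rating 0–100 against untreated plants.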

[2] = tested on: blackgrass (Alopecurus myosuroides); assay: Test A postemergence; settings: Alopecurus myosuroides, post-emergence, 240 h, Postemergence; for pest or weed control at 31 g/ha: 31 g ai/ha, 0 is no effect, 100 is complete control, read-out: Blackgrass plant response rating (0 to 100 scale); for pest or weed control at 125 g/ha: 125 g ai/ha, visual injury after approx. 10 d, 0 to 100 scale, 0 no effect, 100 complete control, read-out: Plant response rating, Blackgrass
Procedure, shortened: as §1

[3] = tested on: Galium (catchweed bedstraw, Galium aparine); assay: Test A postemergence; settings: Galium, post-emergence, 240 h, Postemergence; for pest or weed control at 31 g/ha: 31 g ai/ha, 0 is no effect, 100 is complete control, read-out: Galium plant response rating (0 to 100 scale); for pest or weed control at 125 g/ha: 125 g ai/ha, visual injury after approx. 10 d, 0 to 100 scale, 0 no effect, 100 complete control, read-out: Plant response rating, Galium
Procedure, shortened: as §1

[4] = tested on: wheat (Triticum aestivum); assay: Test A postemergence; settings: Triticum aestivum, post-emergence, 240 h, Postemergence; for plant injury at 31 g/ha: 31 g ai/ha, 0 is no effect, 100 is complete control, read-out: Wheat plant response rating (0 to 100 scale); for plant injury at 125 g/ha: 125 g ai/ha, visual injury after approx. 10 d, 0 to 100 scale, 0 no effect, 100 complete control, read-out: Plant response rating, Wheat
Procedure, shortened: as §1

Kochia (Kochia scoparia) [5] = assay: Test A postemergence; settings: Bassia scoparia, post-emergence, 240 h, Postemergence; for pest or weed control at 31 g/ha: 31 g ai/ha, 0 is no effect, 100 is complete control, read-out: Kochia plant response rating (0 to 100 scale); for pest or weed control at 125 g/ha: 125 g ai/ha, visual injury after approx. 10 d, 0 to 100 scale, 0 no effect, 100 complete control, read-out: Plant response rating, Kochia
Procedure, shortened: as §1

[6] = tested on: ryegrass, Italian (Italian ryegrass, Lolium multiflorum); assay: Test A postemergence; settings: Lolium multiflorum, post-emergence, 240 h, Postemergence; for pest or weed control at 31 g/ha: 31 g ai/ha, 0 is no effect, 100 is complete control, read-out: Ryegrass, Italian plant response rating (0 to 100 scale); for pest or weed control at 125 g/ha: 125 g ai/ha, visual injury after approx. 10 d, 0 to 100 scale, 0 no effect, 100 complete control, read-out: Plant response rating, Ryegrass, Italian
Procedure, shortened: as §1

[7] = tested on: giant foxtail (Setaria faberii); assay: Test A postemergence; settings: Setaria faberi, post-emergence, 240 h, Postemergence; for pest or weed control at 31 g/ha: 31 g ai/ha, 0 is no effect, 100 is complete control, read-out: Foxtail, Giant plant response rating (0 to 100 scale); for pest or weed control at 125 g/ha: 125 g ai/ha, visual injury after approx. 10 d, 0 to 100 scale, 0 no effect, 100 complete control, read-out: Plant response rating, Foxtail, Giant
Procedure, shortened: as §1

corn (Zea mays) = assay: Test A postemergence; settings: Zea mays, post-emergence, 240 h, Postemergence; for plant injury at 31 g/ha: 31 g ai/ha, 0 is no effect, 100 is complete control, read-out: Corn plant response rating (0 to 100 scale); for Corn plant response rating (crop injury, 0 = no effect, 100 = complete kill) at 125 g/ha: 125 g ai/ha, visual injury after approx. 10 d, 0 to 100 scale, 100 complete control
Procedure, shortened: as §1

[8] = tested on: ragweed (common ragweed, Ambrosia elatior); assay: Test A postemergence; settings: Ambrosia artemisiifolia, post-emergence, 240 h, Postemergence; for pest or weed control at 31 g/ha: 31 g ai/ha, 0 is no effect, 100 is complete control, read-out: Ragweed plant response rating (0 to 100 scale); for pest or weed control at 125 g/ha: 125 g ai/ha, visual injury after approx. 10 d, 0 to 100 scale, 0 no effect, 100 complete control, read-out: Plant response rating, Ragweed
Procedure, shortened: as §1

[9] = tested on: barnyardgrass (Echinochloa crus-galli); assay: Test A postemergence; settings: Echinochloa crus-galli, post-emergence, 240 h, Postemergence; for pest or weed control at 31 g/ha: 31 g ai/ha, 0 is no effect, 100 is complete control, read-out: Barnyardgrass plant response rating (0 to 100 scale); for pest or weed control at 125 g/ha: 125 g ai/ha, visual injury after approx. 10 d, 0 to 100 scale, 0 no effect, 100 complete control, read-out: Plant response rating, Barnyardgrass
Procedure, shortened: as §1

[10] = tested on: sedge, umbrella (small-flower umbrella sedge, Cyperus difformis); assay: Test B flooded paddy test; settings: Cyperus difformis, 360 h, Flood, 250 g ai/ha; visually evaluated after 13 to 15 d; read-out: Plant response rating, Sedge, Umbrella (0 to 100 scale where 0 is no effect and 100 is complete control)
Procedure, shortened: (§2)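 Response scored visually against untreated controls, 0 = no effect and 100 = complete control, 13–15 d after treatment in the greenhouse. Compounds added to paddy water held 3 cm above soil surface. Treatment given at 2-leaf stage.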

rice (Oryra sativa) = assay: Test B flooded paddy test; settings: Oryza sativa, 360 h, Flood, 250 g ai/ha; visually evaluated after 13 to 15 d; read-out: Plant response rating, Rice (0 to 100 scale where 0 is no effect and 100 is complete control)
Procedure, shortened: as §2

[11] = tested on: ducksalad (Heteranthera limosa); assay: Test B flooded paddy test; settings: Heteranthera limosa, 360 h, Flood, 250 g ai/ha; visually evaluated after 13 to 15 d; read-out: Plant response rating, Ducksalad (0 to 100 scale where 0 is no effect and 100 is complete control)
Procedure, shortened: as §2

[12] = tested on: barnyardgrass (Echinochloa crus-galli); assay: Test B flooded paddy test; settings: Echinochloa crus-galli, 360 h, Flood, 250 g ai/ha; visually evaluated after 13 to 15 d; read-out: Plant response rating, Barnyardgrass (0 to 100 scale where 0 is no effect and 100 is complete control)
Procedure, shortened: as §2

[13] = tested on: pigweed (Amaranthus retroflexus); assay: Test A preemergence; settings: Amaranthus retroflexus, pre-emergence, 240 h, Preemergence; for pest or weed control at 31 g/ha: 31 g ai/ha, 0 to 100 scale where 0 is no effect and 100 is complete control, read-out: Pigweed plant response rating; for pest or weed control at 125 g/ha: 125 g ai/ha, 0 to 100 scale (0 no effect, 100 complete control), read-out: Plant response rating, Pigweed
Kochia (Kochia scoparia) [14] = assay: Test A preemergence; settings: Bassia scoparia, pre-emergence, 240 h, Preemergence; for pest or weed control at 31 g/ha: 31 g ai/ha, 0 to 100 scale where 0 is no effect and 100 is complete control, read-out: Kochia plant response rating; for pest or weed control at 125 g/ha: 125 g ai/ha, 0 to 100 scale (0 no effect, 100 complete control), read-out: Plant response rating, Kochia
Procedure, shortened: as §1

[15] = tested on: ryegrass, Italian (Italian ryegrass, Lolium multiflorum); assay: Test A preemergence; settings: Lolium multiflorum, pre-emergence, 240 h, Preemergence; for pest or weed control at 31 g/ha: 31 g ai/ha, 0 to 100 scale where 0 is no effect and 100 is complete control, read-out: Ryegrass, Italian plant response rating; for pest or weed control at 125 g/ha: 125 g ai/ha, 0 to 100 scale (0 no effect, 100 complete control), read-out: Plant response rating, Ryegrass, Italian
Procedure, shortened: as §1

[16] = tested on: giant foxtail (Setaria faberii); assay: Test A preemergence; settings: Setaria faberi, pre-emergence, 240 h, Preemergence; for pest or weed control at 31 g/ha: 31 g ai/ha, 0 to 100 scale where 0 is no effect and 100 is complete control, read-out: Foxtail, Giant plant response rating; for pest or weed control at 125 g/ha: 125 g ai/ha, 0 to 100 scale (0 no effect, 100 complete control), read-out: Plant response rating, Foxtail, Giant
Procedure, shortened: as §1

[17] = tested on: ragweed (common ragweed, Ambrosia elatior); assay: Test A preemergence; settings: Ambrosia artemisiifolia, pre-emergence, 240 h, Preemergence; for pest or weed control at 31 g/ha: 31 g ai/ha, 0 to 100 scale where 0 is no effect and 100 is complete control, read-out: Ragweed plant response rating; for pest or weed control at 125 g/ha: 125 g ai/ha, 0 to 100 scale (0 no effect, 100 complete control), read-out: Plant response rating, Ragweed
Procedure, shortened: as §1

[18] = tested on: barnyardgrass (Echinochloa crus-galli); assay: Test A preemergence; settings: Echinochloa crus-galli, pre-emergence, 240 h, Preemergence; for pest or weed control at 31 g/ha: 31 g ai/ha, 0 to 100 scale where 0 is no effect and 100 is complete control, read-out: Barnyardgrass plant response rating; for pest or weed control at 125 g/ha: 125 g ai/ha, 0 to 100 scale (0 no effect, 100 complete control), read-out: Plant response rating, Barnyardgrass
Procedure, shortened: as §1

| Structure (SMILES) | pest or weed control at 31 g/ha [1] | pest or weed control at 125 g/ha [1] | pest or weed control at 31 g/ha [2] | pest or weed control at 125 g/ha [2] | pest or weed control at 31 g/ha [3] | pest or weed control at 125 g/ha [3] | plant injury at 31 g/ha [4] | plant injury at 125 g/ha [4] | pest or weed control at 31 g/ha (Kochia (Kochia scoparia) [5]) | pest or weed control at 125 g/ha (Kochia (Kochia scoparia) [5]) | pest or weed control at 31 g/ha [6] | pest or weed control at 125 g/ha [6] | pest or weed control at 31 g/ha [7] | pest or weed control at 125 g/ha [7] | plant injury at 31 g/ha (corn (Zea mays)) | Corn plant response rating (crop injury, 0 = no effect, 100 = complete kill) at 125 g/ha (corn (Zea mays)) | pest or weed control at 31 g/ha [8] | pest or weed control at 125 g/ha [8] | pest or weed control at 31 g/ha [9] | pest or weed control at 125 g/ha [9] | other results |
| --- | --- | --- | --- | --- | --- | --- | --- | --- | --- | --- | --- | --- | --- | --- | --- | --- | --- | --- | --- | --- | --- |
| CN1C[C@H](c2cccc(C(F)(F)F)c2)[C@@H](C(=O)Nc2cccnc2F)C1=O [Compound 1397] | 0% | 0% | 40% | 70% | 20% | 60% | 40% | 70% | 0% | 0% | 50% | 40% | 80% | 90% | 50% | 90% | 0% | 0% | 90% | 90% | pest or weed control at 250 g/ha [10]: 0%; pest or weed control at 250 g/ha (rice (Oryra sativa)): 0%; pest or weed control at 250 g/ha [11]: 100%; pest or weed control at 250 g/ha [12]: 75%; pest or weed control at 31 g/ha [13]: 0%; pest or weed control at 125 g/ha [13]: 0%; pest or weed control at 31 g/ha (Kochia (Kochia scoparia) [14]): 0%; pest or weed control at 125 g/ha (Kochia (Kochia scoparia) [14]): 60%; pest or weed control at 31 g/ha [15]: 50%; pest or weed control at 125 g/ha [15]: 70%; pest or weed control at 31 g/ha [16]: 100%; pest or weed control at 125 g/ha [16]: 100%; pest or weed control at 31 g/ha [17]: 0%; pest or weed control at 125 g/ha [17]: 0%; pest or weed control at 31 g/ha [18]: 100%; pest or weed control at 125 g/ha [18]: 100% |
| CN1C[C@H](c2ccc(C(F)(F)F)cc2)[C@@H](C(=O)Nc2cccc(F)n2)C1=O [Compound 1400] | 50% | 60% | 30% | 70% | 20% | 70% | 0% | 60% | 30% | 70% | 30% | 50% | 70% | 90% | 20% | 40% | 0% | 50% | 70% | 90% | pest or weed control at 250 g/ha [10]: 0%; pest or weed control at 250 g/ha (rice (Oryra sativa)): 0%; pest or weed control at 250 g/ha [11]: 100%; pest or weed control at 250 g/ha [12]: 80%; pest or weed control at 31 g/ha [13]: 80%; pest or weed control at 125 g/ha [13]: 80%; pest or weed control at 31 g/ha (Kochia (Kochia scoparia) [14]): 60%; pest or weed control at 125 g/ha (Kochia (Kochia scoparia) [14]): 70%; pest or weed control at 31 g/ha [15]: 0%; pest or weed control at 125 g/ha [15]: 30%; pest or weed control at 31 g/ha [16]: 90%; pest or weed control at 125 g/ha [16]: 90%; pest or weed control at 31 g/ha [17]: 0%; pest or weed control at 125 g/ha [17]: 70%; pest or weed control at 31 g/ha [18]: 90%; pest or weed control at 125 g/ha [18]: 90% |
